Consider two molecules from article PMC11586601 (Journal of Inherited Metabolic Disease, 2024).

For data set [1], the target named is T1, cHuNAGS (linker-cleaved) (Homo sapiens, UniProt Q8N159).
T1 sequence (Q8N159 95-534): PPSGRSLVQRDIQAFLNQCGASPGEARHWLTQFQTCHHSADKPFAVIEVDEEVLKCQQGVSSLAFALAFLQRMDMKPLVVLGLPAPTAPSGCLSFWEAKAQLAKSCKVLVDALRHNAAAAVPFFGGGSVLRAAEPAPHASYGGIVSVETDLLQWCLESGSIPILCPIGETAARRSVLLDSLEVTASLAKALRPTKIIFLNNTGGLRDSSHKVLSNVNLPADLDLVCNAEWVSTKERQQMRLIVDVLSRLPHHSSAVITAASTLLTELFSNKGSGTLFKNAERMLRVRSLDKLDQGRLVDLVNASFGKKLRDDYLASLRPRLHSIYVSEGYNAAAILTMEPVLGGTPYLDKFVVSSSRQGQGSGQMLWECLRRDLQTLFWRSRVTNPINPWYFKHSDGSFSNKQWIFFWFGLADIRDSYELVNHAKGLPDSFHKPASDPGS
The data set can be described thus: biochemical.

Data set [2] addresses cHuNAGS (linker-cleaved) (Homo sapiens, UniProt Q8N159, V350I). The data set can be described thus: biochemical.
The data set “SEC” deals with the molecule itself. The data set can be described thus: SEC. (In general: Size exclusion chromatography separates by hydrodynamic size, large species first.)

cHuNAGS (linker-cleaved) (Homo sapiens, UniProt Q8N159, V350I), sequence (Q8N159 95-534 V350I): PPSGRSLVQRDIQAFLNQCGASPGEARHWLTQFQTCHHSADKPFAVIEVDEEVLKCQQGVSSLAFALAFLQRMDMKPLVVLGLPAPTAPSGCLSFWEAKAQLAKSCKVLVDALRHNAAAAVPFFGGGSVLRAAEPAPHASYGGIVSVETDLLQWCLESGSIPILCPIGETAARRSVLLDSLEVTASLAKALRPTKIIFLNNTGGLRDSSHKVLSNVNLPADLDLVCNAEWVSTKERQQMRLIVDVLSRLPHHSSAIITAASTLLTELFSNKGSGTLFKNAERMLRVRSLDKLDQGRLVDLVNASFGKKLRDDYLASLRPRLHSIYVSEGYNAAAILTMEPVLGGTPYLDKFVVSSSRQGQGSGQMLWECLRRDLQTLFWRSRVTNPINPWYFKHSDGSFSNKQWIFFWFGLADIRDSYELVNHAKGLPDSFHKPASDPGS

As usually defined, the EC50 is the concentration at which the effect is half-maximal. The low end stands for a more potent agent, the high end for a less potent agent. `N=C(N)NCCC[C@H](N)C(=O)O` [arginine]: the EC50 was about 20 µM at cHuNAGS (linker-cleaved) [1] and over 4000 µM at cHuNAGS (linker-cleaved) [2].

B1: His6-MBP-cHuNAGS chimera (wild-type) (domain or fragment, human)
chain: LEVLFQGPMPPSGRSLVQRDIQAFLNQCGASPGEARHWLTQFQTCHHSADKPFAVIEVDEEVLKCQQGVSSLAFALAFLQRMDMKPLVVLGLPAPTAPSGCLSFWEAKAQLAKSCKVLVDALRHNAAAAVPFFGGGSVLRAAEPAPHASYGGIVSVETDLLQWCLESGSIPILCPIGETAARRSVLLDSLEVTASLAKALRPTKIIFLNNTGGLRDSSHKVLSNVNLPADLDLVCNAEWVSTKERQQMRLIVDVLSRLPHHSSAVITAASTLLTELFSNKGSGTLFKNAERMLRVRSLDKLDQGRLVDLVNASFGKKLRDDYLASLRPRLHSIYVSEGYNAAAILTMEPVLGGTPYLDKFVVSSSRQGQGSGQMLWECLRRDLQTLFWRSRVTNPINPWYFKHSDGSFSNKQWIFFWFGLADIRDSYELVNHAKGLPDSFHKPASDPGS
On to B1, for which the binding result in “SEC” is listed as “binds”.
